Assay results as given in US12458647B2, “Macrocyclic derivative and use thereof” (Guangzhou Joyo Pharmatech Co., Ltd., priority 2022, dated 2025).

How the values were obtained:
[1] = system: SW620 cells; assay: In vitro cell proliferation experiment (5 days), SW620; assay type: cell-based; settings: SW620, 5 days; read-out: Inhibitory Activity IC50
Method: (§1) RPMI 1640 medium, DMEM, Ham's F12 medium, F12K medium, IMDM and penicillin/streptomycin antibiotics were purchased from Gibco, fetal bovine serum was purchased from Hyclone, Envision multilabel plate reader (PerkinElmer). […]
(§2) The test compound was diluted by 5-fold to 8 concentrations with a pipette, i.e., from 2 mM to 25.6 nM, and replicate wells were set up for the experiment. […] Another cell plate was prepared, and the signal value was read as the maximum value (the maximum value in the following equation) on the day of dosing for data analysis.
(§3) 50 μL of cell viability chemiluminescent detection reagent was added to the cell plate and incubated at room temperature for 30 minutes to stabilize the luminescence signal. A multilabel plate reader was used for reading. […]

[2] = system: LU99 cell line; assay: In vitro cell proliferation experiment (5 days), LU99; assay type: cell-based; settings: LU99, 5 days; read-out: Inhibitory Activity IC50
Method: as §1, §2, §3

[3] = system: NCI—H727 cells; assay: In vitro cell proliferation experiment (5 days), H727; assay type: cell-based; settings: H727, 5 days; read-out: Inhibitory Activity IC50
Method: as §1, §2, §3

[4] = system: A375 cell line; assay: In vitro cell proliferation experiment (5 days), A375 (wild-type independent cell line); assay type: cell-based; settings: A375, 5 days; read-out: Inhibitory Activity IC50
Method: as §1, §2, §3

[5] = system: A549 cells; assay: In vitro cell proliferation experiment (5 days), A549; assay type: cell-based; settings: A549, 5 days; read-out: Inhibitory Activity IC50
Method: as §1, §2, §3

[6] = system: human lung bronchial benign NCI—H727 cells; assay: In vivo pharmacodynamic study, NCI-H727 subcutaneous xenograft tumor model in BALB/c nude mice; settings: gavage once daily
Method: To study the in vivo efficacy of a compound of the present disclosure on human lung bronchial benign NCI—H727 cells in a subcutaneous xenograft tumor model in BALB/c nude mice.
Laboratory animals: Female BALB/c nude mice, 6-8 weeks old, weighing 18-22 g; supplier Beijing Vital River Laboratory Animal Technology Co., Ltd.
(1) Cell culture: Human lung bronchial benign tumor cells were cultured in vitro in a monolayer, and the culture conditions were 10% fetal bovine serum added to Gibco RMPI1640 medium, incubated at 37° C. in a 5% CO2 incubator. Routine passage was performed twice a week with trypsin-EDTA for digestion. When the cell saturation was 80%-90% and the required number was reached, the cells were collected, counted, and inoculated.
(2) Tumour cell inoculation and grouping: 0.2 mL (2×10^6) of NCI—H727 cells (Matrigel was added in a volume ratio of 1:1) were inoculated subcutaneously into the right back of each mouse, and dosing was initiated when the mean tumor volume reached approximately 134 mm^3, with 6 animals in each group.
The vehicle was 5% DMSO/10% solutol/85% water. Control group: The vehicle was administered twice daily by gavage at a dose of 10 μL/g; treatment group: After dissolving the test compound in the vehicle, the compound was administered by gavage once daily.
(3) The tumor diameter was measured with a vernier caliper twice weekly, and the tumor volume(V) was calculated. The formula is: V=0.5a×b^2, where a and b are the long and short diameters of the tumor, respectively. The tumor inhibitory efficacy of the test compound was evaluated by the tumor growth inhibition rate (TGI). The calculation formula is: TGI %=1−(Mean tumor volume at the end of dosing in a treatment group−Mean tumor volume at the start of dosing in this treatment group)/(Mean tumor volume at the end of treatment in the vehicle control group−Mean tumor volume at the start of treatment in the vehicle control group)×100%.

[7] = Pharmacokinetics test in mice; assay type: in vivo, male CD-1 (ICR) mice; settings: male CD-1 mice
Method: The pharmacokinetic behavior of the compounds of the present disclosure was evaluated in male CD-1 (ICR) mice.
The compounds to be tested were dissolved in the vehicle (5% DMSO/10% solutol/85% water). Four male CD-1 mice were divided into 2 groups of 2 mice each. Group 1 mice were administered a single intravenous bolus injection of the compound at a dose of 1 mg/kg. Group 2 mice were administered a single dose of the compound by gavage at a dose of 10 mg/kg. Whole blood samples were collected at 0.083 (intravenous bolus group only), 0.25, 0.5, 1, 2, 4, 8 and 24 hours after dosing. The LC-MS/MS method was used to determine the concentration of the test compound in whole blood samples.

[8] = 25 mg/kg on Days 1-6 and 1 mg/kg on Days 7-21, Day 21
[9] = intravenous bolus 1 mg/kg, whole blood

CCn1c(-c2cc(N3CCN(C)CC3)cnc2C(C)OC)c2c3cc(ccc31)-c1csc(n1)CC(NC(=O)C1C(C)C1C)C(=O)N1NC(C(=O)OCC(C)(C)C2)C2CC1C2 (single isomer, unassigned) [Compound 6A]
IC50 [1]: 0.2 nM
IC50 [2]: 8.7 nM
IC50 [3]: 0.4 nM
IC50 [4]: > 6000 nM
IC50 [5]: 4.1 nM
Tumour Volume (mm^3) Day 1 ([6]; 5 mg/kg, Day 1): 134.6 mm^3
Tumour Volume (mm^3) Day 7 ([6]; 5 mg/kg, Day 7): 86.5 mm^3
Tumour Volume (mm^3) Day 14 ([6]; 5 mg/kg, Day 14): 78.5 mm^3
TGI (%) ([6]; 5 mg/kg, Day 21): 104.4%
Tumour Volume (mm^3) Day 21 ([6]; 5 mg/kg, Day 21): 51.6 mm^3
Tumour Volume (mm^3) Day 1 ([6]; 25 mg/kg on Days 1-6 and 1 mg/kg on Days 7-21, Day 1): 134.5 mm^3
Tumour Volume (mm^3) Day 7 ([6]; 25 mg/kg on Days 1-6 and 1 mg/kg on Days 7-21, Day 7): 76.8 mm^3
Tumour Volume (mm^3) Day 14 ([6]; 25 mg/kg on Days 1-6 and 1 mg/kg on Days 7-21, Day 14): 71.1 mm^3
TGI (%) [6, 8]: 103.2%
Tumour Volume (mm^3) Day 21 [6, 8]: 75.1 mm^3

CCn1c(-c2cc(N3CCN(C)CC3)cnc2C(C)OC)c2c3cc(ccc31)-c1csc(n1)CC(NC(=O)C1CC1C)C(=O)N1NC(C(=O)OCC(C)(C)C2)C2CC1C2 (single isomer, unassigned) [Compound 7A]
bioavailability (F) ([7]; gavage 10 mg/kg vs i.v. 1 mg/kg): 54.3%
AUC0-last ([7]; gavage 10 mg/kg, whole blood): 17,119 h·nmol/mL
time to maximum concentration (τmax) ([7]; gavage 10 mg/kg, whole blood): 3.0 h
apparent volume of distribution at steady state (Vd) [7, 9]: 2.18 L/kg
area under the whole blood concentration-time curve (AUC0-last) [7, 9]: 3.160 µM·h
elimination half-life (T1/2) [7, 9]: 4.29 h
whole blood clearance (C1) [7, 9]: 6.29 mL/min/kg
